In data set [1] the test system is Chinese hamster ovary cells (CHO-K1). In words: In vitro Glutathione assay (GSH/GSSG-Glo) after H2O2-induced oxidative stress. The class given is cell-based. To be noted: 24 h pre-incubation or constant incubation, 100 µM H2O2 for 20 min, with and without FBS, compared to medium control not treated with H2O2. As to the method:
The addition of Cys-peptides and mixtures of Cys-peptides with L-cysteine and L-cystine to the cell culture medium was evaluated regarding their influence on the intracellular glutathione level. Oxidative stress was simulated by the addition of hydrogen peroxide solution. The assay was performed with Chinese hamster ovary cells (CHO-K1). […] In relation to the oxidative stress conditions the cells were pre-incubated or constantly incubated with Cys-peptide samples. […] The samples (Ala-Cys)2 and (Lys-Cys)2 were dissolved in culture medium, either containing 10% fetal bovine serum (FBS) or medium without FBS, to perform the assay setup in presence and absence of FBS during the stress phase. […] This leads to luminescence signals which were measured in a multiplate reader. To calculate the GSH concentrations, a dilution series of a glutathione standard was performed, and luminescence signals measured. Relative luminescence signals were plotted against GSH concentrations. After subtracting the background signals, GSH concentration in samples was calculated based on the linear standard curve. […] After luminescence signals were measured, the intracellular glutathione concentration of cells incubated with Cys-peptides and mixtures and treated with 100 µM H2O2 were compared to a medium control, which was not treated with H2O2.

Data set [2] concerns human bone marrow stromal cells, mesenchymal stem cells (MSC).
Protocol: The assay was performed with human bone marrow stromal cells, mesenchymal stem cells (MSC). In a first step, the cells were seeded in a white 96-well cell culture plate and incubated for 24 h in a CO2-Incubator (37°C, 5% CO2, 95% humidity) at a cell density of 5.000 cells/well. After the resting time of 24 hours, diluted samples containing test compounds were added to the plate in equal volumes of 50 µl to reach the desired concentrations of interest and a final volume of 100 µl per well. Samples of L-cysteine were compared to Cys-peptides and each sample was tested in triplicates. The control was rested in medium without sample. […] The viability was determined based on the quantification of the ATP present in the cells per well. Through the luminescence detection of luciferase using a multiplate reader the ATP amount was measured and quantified. Resulting luminescence signal of samples was normalized to the signal of control cells. […] The viability was determined based on the quantification of the ATP present in the cells per well. Through the luminescence detection of luciferase using a multiplate reader the ATP amount was measured and quantified. Resulting luminescence signal of samples was normalized to the signal of control cells.
The conditions of data set [3]: cell culture media relevant pH of about 7; cited from earlier work.

Molecules are shown by their SMILES. Where a SMILES comes first, the peptide text is derived from it. Bridges are numbered along the chain shown (N, C = ends). Roman numbers before positions name the chains, in order.

As for `N[C@@H](CS)C(=O)O` [L-Cysteine], the intracellular glutathione level entry in data set [1] is on record as “increase intracellular glutathione concentration”. For the same compound, in data set [2], the “viability of MSCs” value is “negatively affects viability”.
Turning to `N[C@@H](CSSC[C@H](N)C(=O)O)C(=O)O` [cystine, L-cystine], the solubility entry in data set [3] was “around 1 mM”.
As to `C[C@H](N)C(=O)N[C@@H](CSSC[C@H](NC(=O)[C@H](C)N)C(=O)O)C(=O)O` [(Ala-Cys)2, N,N'-di-L-alanyl-L-cystine] (I: H-Ala-Cys-OH / II: H-Ala-Cys-OH; disulfide I:2-II:2), in data set [2], the “viability of MSCs” value was “does not have a negative effect on the viability”.
